Assay: Acetate and glycerol tracer infusion study with ingestion of lactulose or saline in obese, insulin resistant subjects
Format: in vivo, human
Procedure: Eight obese and insulin resistant subjects received a primed constant intravenous infusion of [1-^13C]acetate at the rate of 0.50 μmol·kg^−1·min^−1 and of [1,1,2,3,3-^2H5]glycerol at the rate of 0.11 μmol·kg^−1·min^−1 for 9 hours. After 3 hours of tracer infusion, patients ingested 30 g of pure lactulose, or saline solution. Arterialized blood samples were collected regularly.

Question: What does the source list for OC[C@H]1O[C@@H](O[C@@H]2[C@@H](CO)OC(O)(CO)[C@H]2O)[C@H](O)[C@@H](O)[C@H]1O (mixture of isomers) [lactulose]?
Answer: plasma acetate concentration, maximum (after ingestion of 30 g lactulose, then decreased to baseline): ≈ 400 μmol/L; FFA concentrations (after ingestion of 30 g lactulose, to 120 min, thereafter increased slowly): decreased significantly; acetate turnover rate (after ingestion of 30 g pure lactulose, eight obese insulin resistant subjects, saline 10.3±2.2, P<0.0001): 15.5 ± 2.2 µmol/kg/min; glycerol turnover (after ingestion of 30 g pure lactulose, saline 3.5±0.3, P≦0.05): 2.8 ± 0.4 µmol/kg/min

From patent US20060148754A1, “Composition for treating and/or preventing dysfunctions associated with type 2 diabetes mellitus and insulin resistance” (priority 2003, published 2006)
